Reference: patent publication US4439436A, “1,3-Dioxolo(4,5-G)quinoline compounds” (Sterling Drug Inc., priority 1982, dated 1984)
In brackets after ≈: the same amount, converted by molar mass. Like-named read-outs stand apart in the source and are kept apart here.

Tests used:
Escherichia coli Vogel [1] = assay: in vitro antibacterial activity, serial dilution (MIC); format: cell-based
Procedure: (§1) The in vitro antibacterial activity was determined by conventional serial dilution procedures. Bacterial cultures were grown in tryptose phosphate broth or brain heart infusion broth (containing heat-inactivated normal horse serum for tests with S. pyogenes) overnight at 37° C. and subsequently diluted in double strength broth to provide bacterial inocula of about 2×10^5 cells/ml. Aqueous solutions of the compounds of the invention were prepared by dissolving the free acid form in 0.5 N sodium hydroxide. The solutions were diluted with sterile distilled water to 100 mcg/ml of compound in terms of the free acid. Serial two-fold dilutions of the compound stock solutions were prepared in water and 0.5 ml of each dilution was transferred to sets of tubes, one set for each bacterial inoculum. Each tube was then inoculated with 0.5 ml of the appropriate culture, resulting in a final bacterial concentration of about 1×10^5 cells/ml. The minimal inhibitory concentration (MIC), defined as the lowest concentration of the test compound to inhibit visible bacterial growth, was recorded after 18-20 hours of static incubation at 37° C.

Proteus mirabilis MGH-1 = assay: as above; format: cell-based; details: MGH1
Procedure: as §1

Proteus vulgaris 9920 = assay: as above; format: cell-based
Procedure: as §1

[2] = system: Klebsiella pneumoniae 39645; assay: as above; format: cell-based
Procedure: as §1

Escherichia coli Vogel [3] = assay: in vivo antibacterial activity in mice infected with E. coli; set-up: species or system female mice; details: sc, 168 h
Procedure: (§2) The in vivo antibacterial activity of the compounds of the invention was determined in female mice, 18-20 grams each, by the following procedure:
(§3) Aqueous solutions of the compounds to be tested were prepared by dissolving the free acid form in dilute sodium hydroxide and diluting the solution with distilled water to the desired volume.
(§4) Cultures of Escherichia coli Vogel prepared in brain heart infusion broth, cultures of Klebsiella pneumoniae 39645 grown in tryptose phosphate broth with 5% rabbit serum diluted in the same broth were used to infect the mice as follows:
E coli: mice were inoculated intraperitoneally with 0.5 ml of the bacterial test inoculum (1.87×10^7 and 5×10^6 cells/ml respectively).
Mice infected with E. coli were medicated once (0.5 ml) one-half hour post infection, the test compound being administered by the subcutaneous (s.c.) route. Deaths were recorded daily for seven days.
(§5) Groups of ten animals each for four or five dose levels were thus treated and the number of survivors in each group recorded. The fifty percent protective dose values (PD50) were then calculated.

[4] = system: Pseudomonas aeruginosa MGH-2; assay: in vitro antibacterial activity, serial dilution (MIC); format: cell-based; details: MGH2, 18-20 hours, 37° C., about 1×10^5 cells/ml, read-out: Minimal Inhibitory Concentration
Procedure: as §1

[5] = system: Staphylococcus aureus Smith; assay: as above; format: cell-based; details: 18-20 hours, 37° C., about 1×10^5 cells/ml, read-out: Minimal Inhibitory Concentration
Procedure: as §1

[6] = system: Streptococcus pyogenes C203; assay: as above; format: cell-based; details: broth with heat-inactivated normal horse serum, 18-20 hours, 37° C., read-out: Minimal Inhibitory Concentration
Procedure: as §1

[7] = system: Klebsiella pneumoniae 39645; assay: in vivo antibacterial activity in mice infected with K. pneumoniae; set-up: species or system female mice; details: Klebsiella pneumoniae, 39645, sc, 336 h; K. pneumoniae intramuscularly; s.c. 17 h and 1 h preinfection, 6 h postinfection, twice a day next three days; fourteen days; read-out: Protective Dose (PD50)
Procedure: as §2, §3, §4
K. pneumoniae: mice were inoculated intramuscularly in the right hind leg with 0.2 ml of the bacterial test inoculum (2.05×10^4 cells/ml).
Mice infected with K. pneumoniae were medicated at the following times: seventeen hours and one hour preinfection, six hours postinfection and twice a day for the next three days. The test compound was administered by the subcutaneous (0.2 ml) route. Deaths were recorded daily for fourteen days.
as §5

[8] = Escherichia coli, E. coli, in vitro, read-out: MIC
[9] = Proteus mirabilis, P. mirab., in vitro, read-out: MIC
[10] = Proteus vulgaris, 9920, P. vulg., in vitro, read-out: MIC
[11] = Escherichia coli Vogel, 18-20 hours, 37° C., about 1×10^5 cells/ml, read-out: Minimal Inhibitory Concentration
[12] = Klebsiella pneumoniae 39645, 18-20 hours, 37° C., about 1×10^5 cells/ml, read-out: Minimal Inhibitory Concentration
[13] = Proteus mirabilis MGH-1, 18-20 hours, 37° C., about 1×10^5 cells/ml, read-out: Minimal Inhibitory Concentration
[14] = Proteus vulgaris 9920, 18-20 hours, 37° C., about 1×10^5 cells/ml, read-out: Minimal Inhibitory Concentration
[15] = E. coli intraperitoneally, single s.c. dose one-half hour post infection, seven days, read-out: Protective Dose (PD50)

Structure (SMILES) | MIC (Escherichia coli Vogel [1]; [8]) [mg/L] | MIC (Proteus mirabilis MGH-1; [9]) [mg/L] | MIC (Proteus vulgaris 9920; [10]) [mg/L] | MIC ([2]; Klebsiella pneumoniae, 39645, K. pneum., in vitro, read-out: MIC) [mg/L] | ED50 (Escherichia coli Vogel [3]; in vivo against E. coli, read-out: PD50) [mg/kg] | MIC (Escherichia coli Vogel [1]; [11]) [mg/L] | MIC [2, 12] [mg/L] | MIC (Proteus mirabilis MGH-1; [13]) [mg/L] | MIC (Proteus vulgaris 9920; [14]) [mg/L] | MIC [4] [mg/L] | MIC [5] [mg/L] | MIC [6] [mg/L] | ED50 (Escherichia coli Vogel [3]; [15]) [mg/kg] | ED50 [7] [mg/kg]
Nn1cc(C(=O)O)c(=O)c2cc3c(cc21)OCO3 [Example 2, 5-Amino-5,8-dihydro-8-oxo-1,3-dioxolo[4,5-g]quinoline-7-carboxylic acid] | 7.8 (≈ 31.4 µM) | 3.9 (≈ 15.7 µM) | 3.9 (≈ 15.7 µM) |  |  |  |  |  |  |  |  |  |  | 
CN(C=O)n1cc(C(=O)O)c(=O)c2cc3c(cc21)OCO3 [Example 7, 5-[(Formyl)methylamino]5,8-dihydro-8-oxo-1,3-dioxolo[4,5-g]-quinoline-7-carboxylic acid] | 31.3 (≈ 108 µM) | 7.8 (≈ 26.9 µM) | 15.6 (≈ 53.8 µM) | 15.6 (≈ 53.8 µM) | 40 |  |  |  |  |  |  |  |  | 
CNn1cc(C(=O)O)c(=O)c2cc3c(cc21)OCO3 [Example 9, 5,8-Dihydro-5-(methylamino)-8-oxo-1,3-dioxolo[4,5-g]quinoline-7-carboxylic acid] |  |  |  |  |  | 0.25 (≈ 0.953 µM) | 1 (≈ 3.81 µM) | 0.25 (≈ 0.953 µM) | 0.125 (≈ 0.477 µM) | 15.6 (≈ 59.5 µM) | 3.9 (≈ 14.9 µM) | > 500 | 3.3 | 28
CCCNn1cc(C(=O)O)c(=O)c2cc3c(cc21)OCO3 [Example 14, 5,8-Dihydro-8-oxo-5-(propylamino)-1,3-dioxolo[4,5-g]quinoline-7-carboxylic acid] |  |  |  |  |  | > 7.8 | > 7.8 | > 7.8 | 3.9 (≈ 13.4 µM) | > 62.5 | > 62.5 | > 62.5 | 141 | > 200
CCNn1cc(C(=O)O)c(=O)c2cc3c(cc21)OCO3 [Example 12, 5-(Ethylamino)-5,8-dihydro-8-oxo-1,3-dioxolo[4,5-g]quinoline-7-carboxylic acid] |  |  |  |  |  | 1 (≈ 3.62 µM) | 1.95 (≈ 7.06 µM) | 1.95 (≈ 7.06 µM) | 0.25 (≈ 0.905 µM) | > 62.5 | > 15.6 | > 62.5 | 7 | 50
